Assay results taken from PMC11240139, “Exploring the antitumor potential of novel quinoline derivatives via tubulin polymerization inhibition in breast cancer; design, synthesis and molecular docking” (RSC Advances, 2024).

How the values were obtained:
[1] = test system: SNB-75 (CNS cancer); assay: NCI-60 SRB cytotoxicity screen; type: cell-based; conditions: Homo sapiens, SNB-75, SNB-75, single dose 10 μM; read-out: growth inhibition (GI%)
[2] = test system: M14 (melanoma); assay: NCI-60 SRB cytotoxicity screen; type: cell-based; conditions: Homo sapiens; M14, single dose 10 μM; read-out: growth inhibition (GI%)
[3] = test system: K-562 (leukemia); assay: NCI-60 SRB cytotoxicity screen; type: cell-based; conditions: Homo sapiens; K-652 [sic], single dose 10 μM; read-out: growth inhibition (GI%)
[4] = test system: TK-10 (renal cancer); assay: NCI-60 SRB cytotoxicity screen; type: cell-based; conditions: Homo sapiens; TK-10, single dose 10 μM; read-out: growth inhibition (GI%)
[5] = test system: HCT-116 (colon cancer); assay: NCI-60 SRB cytotoxicity screen; type: cell-based; conditions: Homo sapiens; HCT-116, single dose 10 μM; read-out: growth inhibition (GI%)
[6] = test system: A498 (renal cancer); assay: NCI-60 SRB cytotoxicity screen; type: cell-based; conditions: Homo sapiens; A498, single dose 10 μM; read-out: growth inhibition (GI%)
[7] = test system: HS 578T (breast cancer); assay: NCI-60 SRB cytotoxicity screen; type: cell-based; conditions: Homo sapiens, single dose 10 μM, read-out: growth inhibition (GI%)
[8] = test system: SK-MEL-28 (melanoma); assay: NCI-60 SRB cytotoxicity screen; type: cell-based; conditions: Homo sapiens; SK-MEL-28, single dose 10 μM; read-out: growth inhibition (GI%)
[9] = test system: 786-0 (renal cancer); assay: NCI-60 SRB cytotoxicity screen; type: cell-based; conditions: Homo sapiens; 786-0, single dose 10 μM; read-out: growth inhibition (GI%)
[10] = test system: OVCAR-8 (ovarian cancer); assay: NCI-60 SRB cytotoxicity screen; type: cell-based; conditions: Homo sapiens; OVCAR-8, single dose 10 μM; read-out: growth inhibition (GI%)
[11] = test system: SK-MEL-5 (melanoma); assay: NCI-60 SRB cytotoxicity screen; type: cell-based; conditions: Homo sapiens; SK-MEL-5, single dose 10 μM; read-out: growth inhibition (GI%)
[12] = test system: A549/ATCC (non-small cell lung cancer); assay: NCI-60 SRB cytotoxicity screen; type: cell-based; conditions: Homo sapiens, single dose 10 μM, read-out: growth inhibition (GI%)
[13] = test system: NCI-H226 (non-small cell lung cancer); assay: NCI-60 SRB cytotoxicity screen; type: cell-based; conditions: Homo sapiens; NCI-H226, single dose 10 μM; read-out: growth inhibition (GI%)
[14] = test system: NCI-H522 (non-small cell lung cancer); assay: NCI-60 SRB cytotoxicity screen; type: cell-based; conditions: Homo sapiens; NCI-H522, single dose 10 μM; read-out: growth inhibition (GI%)
[15] = test system: HOP-92 (non-small cell lung cancer); assay: NCI-60 SRB cytotoxicity screen; type: cell-based; conditions: Homo sapiens; HOP-92, single dose 10 μM; read-out: growth inhibition (GI%)
[16] = test system: SN12C (renal cancer); assay: NCI-60 SRB cytotoxicity screen; type: cell-based; conditions: Homo sapiens, single dose 10 μM, read-out: growth inhibition (GI%)
[17] = test system: LOX IMVI (melanoma); assay: NCI-60 SRB cytotoxicity screen; type: cell-based; conditions: Homo sapiens, single dose 10 μM, read-out: growth inhibition (GI%)
[18] = test system: CAKI-1 (renal cancer); assay: NCI-60 SRB cytotoxicity screen; type: cell-based; conditions: Homo sapiens; CAKI-1, single dose 10 μM; read-out: growth inhibition (GI%)
[19] = test system: UACC-62 (melanoma); assay: NCI-60 SRB cytotoxicity screen; type: cell-based; conditions: Homo sapiens; UACC-62, single dose 10 μM; read-out: growth inhibition (GI%)
[20] = test system: HL-60(TB) (leukemia); assay: NCI-60 SRB cytotoxicity screen; type: cell-based; conditions: Homo sapiens, single dose 10 μM, read-out: growth inhibition (GI%)
[21] = test system: ACHN (renal cancer); assay: NCI-60 SRB cytotoxicity screen; type: cell-based; conditions: Homo sapiens, single dose 10 μM, read-out: growth inhibition (GI%)
[22] = test system: HCC-2998 (colon cancer); assay: NCI-60 SRB cytotoxicity screen; type: cell-based; conditions: Homo sapiens; HCC-2998, single dose 10 μM; read-out: growth inhibition (GI%)
[23] = test system: PC-3 (prostate cancer); assay: NCI-60 SRB cytotoxicity screen; type: cell-based; conditions: PC-3, single dose 10 μM; read-out: growth inhibition (GI%)
[24] = test system: NCI-H23 (non-small cell lung cancer); assay: NCI-60 SRB cytotoxicity screen; type: cell-based; conditions: Homo sapiens; NCI-H23, single dose 10 μM; read-out: growth inhibition (GI%)
[25] = test system: HOP-62 (non-small cell lung cancer); assay: NCI-60 SRB cytotoxicity screen; type: cell-based; conditions: Homo sapiens; HOP-62, single dose 10 μM; read-out: growth inhibition (GI%)
[26] = test system: SK-MEL-2 (melanoma); assay: NCI-60 SRB cytotoxicity screen; type: cell-based; conditions: Homo sapiens; SK-MEL-2, single dose 10 μM; read-out: growth inhibition (GI%)
[27] = test system: RPMI-8226 (leukemia); assay: NCI-60 SRB cytotoxicity screen; type: cell-based; conditions: Homo sapiens; RPMI-8226, single dose 10 μM; read-out: growth inhibition (GI%)
[28] = test system: MDA-MB-435 (melanoma); assay: NCI-60 SRB cytotoxicity screen; type: cell-based; conditions: Homo sapiens, MDA-MB-435, read-out: growth inhibition (GI%);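 note: growth inhibition in percent at a single 10 µM dose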
[29] = test system: NCI-H460 (non-small cell lung cancer); assay: NCI-60 SRB cytotoxicity screen; type: cell-based; conditions: Homo sapiens; NCI-H460, single dose 10 μM; read-out: growth inhibition (GI%)
[30] = test system: NCI-H322M (non-small cell lung cancer); assay: NCI-60 SRB cytotoxicity screen; type: cell-based; conditions: Homo sapiens, single dose 10 μM, read-out: growth inhibition (GI%)
[31] = test system: UO-31 (renal cancer); assay: NCI-60 SRB cytotoxicity screen; type: cell-based; conditions: Homo sapiens; UO-31, single dose 10 μM; read-out: growth inhibition (GI%)
[32] = test system: KM12 (colon cancer); assay: NCI-60 SRB cytotoxicity screen; type: cell-based; conditions: Homo sapiens; KM12, single dose 10 μM; read-out: growth inhibition (GI%)
[33] = test system: U251 (CNS cancer); assay: NCI-60 SRB cytotoxicity screen; type: cell-based; conditions: Homo sapiens, U-251; U251, single dose 10 μM; read-out: growth inhibition (GI%)
[34] = test system: COLO 205 (colon cancer); assay: NCI-60 SRB cytotoxicity screen; type: cell-based; conditions: Homo sapiens; COLO 205, single dose 10 μM; read-out: growth inhibition (GI%)
[35] = test system: DU-145 (prostate cancer); assay: NCI-60 SRB cytotoxicity screen; type: cell-based; conditions: Homo sapiens; DU-145, single dose 10 μM; read-out: growth inhibition (GI%)

Row | Structure (SMILES) | inhibition at 10 µM [1] | inhibition at 10 µM [2] | inhibition at 10 µM [3] | inhibition at 10 µM [4] | inhibition at 10 µM [5] | inhibition at 10 µM [6] | inhibition at 10 µM [7] | inhibition at 10 µM [8] | inhibition at 10 µM [9] | inhibition at 10 µM [10] | inhibition at 10 µM [11] | inhibition at 10 µM [12] | inhibition at 10 µM [13] | inhibition at 10 µM [14] | inhibition at 10 µM [15] | inhibition at 10 µM [16] | inhibition at 10 µM [17] | inhibition at 10 µM [18] | inhibition at 10 µM [19] | inhibition at 10 µM [20] | other results
1 | CCc1cccc2cc(-c3cc(-c4cc(OC)c(OC)c(OC)c4)[nH]c(=S)c3C#N)c(Cl)nc12 [Compound 5c, 4-(2-Chloro-8-ethylquinolin-3-yl)-2-thioxo-6-(3,4,5-trimethoxyphenyl)-1,2-dihydropyridine-3-carbonitrile] | < 10% | 31.2% | 33.9% | < 10% | 27.1% | 18.8% | 32.7% | < 10% | 27.9% | 36.7% | 52.2% | 38.1% | 63.3% | 65.7% | 77.4% | 39.7% | 38.3% | 69.8% | 33.5% | 51.8% | inhibition at 10 µM [21]: 32.5%; inhibition at 10 µM [22]: 33%; inhibition at 10 µM [23]: 48.9%; inhibition at 10 µM [24]: 33.7%; inhibition at 10 µM [25]: 10.6%; inhibition at 10 µM [26]: 33%; inhibition at 10 µM [27]: 63.1%; inhibition at 10 µM [28]: 24.9%; inhibition at 10 µM [29]: 21.8%; inhibition at 10 µM [30]: 34%; inhibition at 10 µM [31]: 45.2%; inhibition at 10 µM [32]: 37.2%; inhibition at 10 µM [33]: 31%; inhibition at 10 µM [34]: 12.7%; inhibition at 10 µM [35]: 32.3%; melting point: 279 to 281 °C
2 | CCc1cccc2cc(C3C=C(c4ccc(OC)c(OC)c4)NC(=S)N3)c(Cl)nc12 (stereo not drawn) [Compound 6b, 4-(2-Chloro-8-ethylquinolin-3-yl)-6-(3,4-dimethoxyphenyl)-3,4-dihydropyrimidine-2(1H)-thione] | < 10% | < 10% | 10.5% | < 10% | 17.2% | < 10% | 12.9% | < 10% | < 10% | < 10% | 14.1% | < 10% | 15.4% | 22.1% | < 10% | < 10% | < 10% | 30.2% | 10.3% | 10.7% | inhibition at 10 µM [21]: < 10%; inhibition at 10 µM [22]: < 10%; inhibition at 10 µM [23]: < 10%; inhibition at 10 µM [24]: < 10%; inhibition at 10 µM [25]: 11%; inhibition at 10 µM [26]: < 10%; inhibition at 10 µM [27]: 36.1%; inhibition at 10 µM [28]: < 10%; inhibition at 10 µM [29]: < 10%; inhibition at 10 µM [30]: < 10%; inhibition at 10 µM [31]: 37.2%; inhibition at 10 µM [32]: < 10%; inhibition at 10 µM [33]: < 10%; inhibition at 10 µM [34]: < 10%; inhibition at 10 µM [35]: < 10%; melting point: 237 to 239 °C
3 | CCc1cccc2cc(C3C=C(c4ccc(F)cc4)NC(=S)N3)c(Cl)nc12 (stereo not drawn) [Compound 6d, 4-(2-Chloro-8-ethylquinolin-3-yl)-6-(4-fluorophenyl)-3,4-dihydropyrimidine-2(1H)-thione] | < 10% | 10.8% | 27.6% | < 10% | 21.5% | < 10% | < 10% | < 10% | < 10% | < 10% | < 10% | < 10% | 21.7% | 25% | < 10% | < 10% | < 10% | 26.1% | 14.2% | < 10% | inhibition at 10 µM [21]: < 10%; inhibition at 10 µM [22]: < 10%; inhibition at 10 µM [23]: 22%; inhibition at 10 µM [24]: 11.8%; inhibition at 10 µM [25]: 15.2%; inhibition at 10 µM [26]: < 10%; inhibition at 10 µM [27]: 19.3%; inhibition at 10 µM [28]: < 10%; inhibition at 10 µM [29]: < 10%; inhibition at 10 µM [30]: < 10%; inhibition at 10 µM [31]: 49.5%; inhibition at 10 µM [32]: 13.2%; inhibition at 10 µM [33]: < 10%; inhibition at 10 µM [34]: < 10%; inhibition at 10 µM [35]: < 10%; melting point: 220 to 222 °C
